# Results as given in article PMC7294809, “Discovery of an Allosteric Binding Site in Kinetoplastid Methionyl-tRNA Synthetase” (ACS Infectious Diseases, 2020).
# Where two headings read alike, the source gives them in different places.
# Experiments:
# CHI LogD measurement = type: physicochemical
# Procedure: CHI LogD measurements were performed as described elsewhere.[29] cLogP measurements were calculated using StarDrop (Optibrium).
# TcMetRS = TcMetRS (Trypanosoma cruzi, UniProt Q4D6H2); test: TcMetRS BIOMOL Green biochemical assay, 10-point dose response; conditions: for IC50 / Emax: 50 μM methionine, 100 μM ATP; for IC50: 80 nM TcMetRS, read-out: TcMetRS pIC50 (converted); for Emax: read-out: TcMetRS Maximum % Inhibition; for TcMetRS Maximum % Inhibition Plateau: Table 3, plateau of dose-response curve
# Sequence of TcMetRS (Q4D6H2 entry or part of it): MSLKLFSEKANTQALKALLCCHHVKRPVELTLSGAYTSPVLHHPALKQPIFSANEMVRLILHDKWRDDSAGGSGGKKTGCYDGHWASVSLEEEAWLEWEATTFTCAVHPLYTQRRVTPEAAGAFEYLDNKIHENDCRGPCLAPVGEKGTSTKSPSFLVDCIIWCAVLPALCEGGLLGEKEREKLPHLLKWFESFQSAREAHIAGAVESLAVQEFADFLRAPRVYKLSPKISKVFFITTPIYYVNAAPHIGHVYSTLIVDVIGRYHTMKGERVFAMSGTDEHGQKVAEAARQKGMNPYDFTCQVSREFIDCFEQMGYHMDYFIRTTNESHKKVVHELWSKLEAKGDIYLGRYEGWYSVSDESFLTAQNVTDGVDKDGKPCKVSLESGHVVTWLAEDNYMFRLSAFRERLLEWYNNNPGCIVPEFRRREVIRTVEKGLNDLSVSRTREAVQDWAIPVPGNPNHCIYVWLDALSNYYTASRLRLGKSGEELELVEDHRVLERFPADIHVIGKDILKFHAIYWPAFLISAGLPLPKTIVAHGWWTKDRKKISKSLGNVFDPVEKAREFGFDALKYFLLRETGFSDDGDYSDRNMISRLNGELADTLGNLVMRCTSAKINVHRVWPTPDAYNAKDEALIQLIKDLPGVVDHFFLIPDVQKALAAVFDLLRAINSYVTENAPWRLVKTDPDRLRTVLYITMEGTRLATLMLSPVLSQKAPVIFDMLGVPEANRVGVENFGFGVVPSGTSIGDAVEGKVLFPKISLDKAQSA
# [1] = Aqueous solubility, filtration-based method; type: physicochemical; conditions: phosphate-buffered saline pH 7.4, 24 h, 25 °C; for solubility at 24 h: aqueous buffer, kinetic from dmso stock
# Procedure: Solubility was assessed using a filtration-based method. Test compounds were dissolved in DMSO to give 10 mM solutions. Five microliters of the 10 mM solution was added to 195 μL of phosphate-buffered saline at pH 7.4 and mixed for 24 h (rotary mixing, 900 rpm, 25 °C) excluding light. After mixing, the samples were filtered to remove any undissolved material using a Millipore Multiscreen HTS filter. The filtrate was analyzed for dissolved drug compounds using UHPLC.
# LdMetRS = LdMetRS (Leishmania donovani, UniProt A0A3Q8IBX2); test: LdMetRS BIOMOL Green biochemical assay, 10-point dose response; conditions: 50 μM methionine, 100 μM ATP; for IC50: read-out: LdMetRS pIC50 (converted)
# Sequence of LdMetRS (A0A3Q8IBX2 entry or part of it): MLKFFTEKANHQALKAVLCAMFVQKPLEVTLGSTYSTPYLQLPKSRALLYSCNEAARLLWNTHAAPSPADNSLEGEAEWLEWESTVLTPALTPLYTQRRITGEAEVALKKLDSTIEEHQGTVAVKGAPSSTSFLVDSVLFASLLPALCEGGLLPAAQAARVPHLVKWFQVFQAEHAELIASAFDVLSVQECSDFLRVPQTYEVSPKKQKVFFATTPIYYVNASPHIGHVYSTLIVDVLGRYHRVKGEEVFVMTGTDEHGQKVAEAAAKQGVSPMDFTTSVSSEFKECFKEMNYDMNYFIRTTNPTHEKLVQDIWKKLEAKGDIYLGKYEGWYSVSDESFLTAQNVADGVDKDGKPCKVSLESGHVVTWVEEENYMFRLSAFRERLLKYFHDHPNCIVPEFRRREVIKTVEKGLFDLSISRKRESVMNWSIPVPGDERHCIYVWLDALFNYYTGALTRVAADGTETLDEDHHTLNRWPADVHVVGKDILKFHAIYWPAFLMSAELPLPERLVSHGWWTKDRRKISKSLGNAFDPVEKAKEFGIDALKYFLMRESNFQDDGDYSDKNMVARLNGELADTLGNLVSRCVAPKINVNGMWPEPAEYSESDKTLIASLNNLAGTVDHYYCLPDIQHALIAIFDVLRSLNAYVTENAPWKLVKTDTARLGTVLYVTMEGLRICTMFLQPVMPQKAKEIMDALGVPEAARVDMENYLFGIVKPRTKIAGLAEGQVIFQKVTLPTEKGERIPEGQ
# [2] = chromatographic hydrophobicity index
# [3] = 50 nM LdMetRS, pIC50 = −log IC50 (M)
# [4] = plateau of dose-response curve, read-out: LdMetRS Maximum % Inhibition Plateau
# [5] = Table 2, read-out: LdMetRS Maximum % Inhibition
# [6] = chromatography (chromatographic hydrophobicity index)
SMILES,chromatographic logD (CHI LogD measurement; [2]),IC50 (TcMetRS) [µM],solubility at 24 h [1] [µM],IC50 (LdMetRS; [3]) [M],Emax (LdMetRS; [4]) [%],Emax (TcMetRS) [%],Emax (LdMetRS; [5]) [%],Aqueous Solubility [1],LdMetRS Maximum % Inhibition Plateau (LdMetRS; plateau of dose-response curve),LdMetRS pIC50 (LdMetRS; [3]),chromatographic logD (CHI LogD measurement; [6]),TcMetRS Maximum % Inhibition Plateau (TcMetRS) [%]
CNc1nc(Nc2ccc(F)c(F)c2)nc2c1cnn2C [Compound 18],2.31,> 100,58,6.31e-06,98.7,,,,,,,
COc1cc(Nc2nc(NCCO)c3cnn(C)c3n2)ccc1F [Compound 14],,> 100,,> 0.0001,,4.9,36.8,,,,,
Cn1ncc2c(NCCO)nc(Nc3ccc(Cl)cc3)nc21 [Compound 1],,,,7.94e-06,89.5,,,,,,,
Cn1ncc2c(NCCO)nc(NC3CCCCC3)nc21 [Compound 8],1.74,> 100,,> 0.0001,,16.3,11.1,,,,,
Cn1ncc2c(NCCO)nc(N3CCCCC3)nc21 [Compound 10],1.49,> 100,,> 0.0001,,13.6,10.8,,,,,
Cn1ncc2c(NCCO)nc(NC3CCOCC3)nc21 [Compound 9],0.04,> 100,,> 0.0001,,15,17.3,,,,,
COc1ccc(Nc2nc(NCCO)c3cnn(C)c3n2)cc1Cl [Compound 7],,,,> 0.0001,,,,,,,,
CC(C)Cc1cc(Nc2nc(NCCO)c3cnn(C)c3n2)ccc1F [Compound 16],,> 100,,> 0.0001,,15.4,17.1,,,,,
Cn1ncc2c(NCCO)nc(Nc3ccc(F)cc3)nc21 [Compound 2],,,,2.51e-05,94.2,,,,,,1.32,
Cn1ncc2c(Nc3ccc(F)c(F)c3)nc(Nc3ccc(F)c(F)c3)nc21 [Compound 17],3.82,> 100,0.38,> 0.0001,,,,,,,,
CC(C)Nc1nc(NCCO)c2cnn(C)c2n1 [Compound 11],0.63,> 100,,> 0.0001,,6.3,5.3,,,,,
CN(c1cccc(F)c1)c1nc(NCCO)c2cnn(C)c2n1 [Compound 12],1.51,> 100,,> 0.0001,,11.7,10.2,,,,,
Cn1ncc2c(NCCO)nc(Nc3cccc(Cl)c3)nc21 [Compound 3],,,,1.26e-05,94.7,,,,,,1.82,
Cn1ncc2c(NCCO)nc(Nc3ccc(F)c(F)c3)nc21 [Compound 5],,,,1.26e-05,98.7,,,,,,1.64,
Cn1ncc2c(NCCO)nc(Nc3ccc(F)cc3F)nc21 [Compound 6],,,,1.26e-05,102,,,,,,,
CC(C)Oc1cc(Nc2nc(NCCO)c3cnn(C)c3n2)ccc1F [Compound 15],,> 100,,> 0.0001,,5.4,6.9,,,,,
Cn1ncc2c(NCCO)nc(Nc3cccc(F)c3)nc21 [Compound 4],,,,3.16e-05,83.7,,,,,,1.48,

# Next, values leading:
chromatographic logD (CHI LogD measurement; [2]),IC50 (TcMetRS) [µM],solubility at 24 h [1] [µM],IC50 (LdMetRS; [3]) [M],Emax (LdMetRS; [4]) [%],Emax (TcMetRS) [%],Emax (LdMetRS; [5]) [%],Aqueous Solubility [1],LdMetRS Maximum % Inhibition Plateau (LdMetRS; plateau of dose-response curve),LdMetRS pIC50 (LdMetRS; [3]),chromatographic logD (CHI LogD measurement; [6]),TcMetRS Maximum % Inhibition Plateau (TcMetRS) [%],SMILES
,> 100,0.72,6.31e-06,68.7,,,,,,,,Cc1noc(CNc2nc(Nc3ccc(F)c(F)c3)nc3c2cnn3C)n1 [Compound 28]
3.63,2,128,2e-07,100,,,good solubility,full inhibition,,,,COC(=O)C(Cc1c[nH]cn1)Nc1nc(Nc2ccc(F)c(F)c2)nc2c1cnn2C (stereo not shown) [Compound 31]
3.93,> 100,0.46,> 0.0001,,,,,,inactive,,,Cn1ncc2c(N3CCCCC3)nc(Nc3ccc(F)c(F)c3)nc21 [Compound 24]
1.38,> 100,201,2e-05,68.9,,,,,,,,CNC(=O)CNc1nc(Nc2ccc(F)c(F)c2)nc2c1cnn2C [Compound 26]
4.91,> 100,,7.94e-07,94.7,,,,,,,,COC(=O)C1(Nc2nc(Nc3ccc(F)c(F)c3)nc3c2cnn3C)CC1 [Compound 32]
6.22,10,39.1,7.94e-07,100,,,,,,,51.5,COC(=O)[C@H](Nc1nc(Nc2ccc(F)c(F)c2)nc2c1cnn2C)C(C)C [Compound 29]
1.99,> 100,2.4,2.51e-06,69.9,,,,,,,,CN(CCO)c1nc(Nc2ccc(F)c(F)c2)nc2c1cnn2C [Compound 20]
2.49,> 100,23.3,6.31e-06,99.7,,,,,,,,COCCNc1nc(Nc2ccc(F)c(F)c2)nc2c1cnn2C [Compound 21]
2.5,> 100,,3.98e-06,61,,,,,,,,Cn1ncc2c(NC3CCCCC3O)nc(Nc3ccc(F)c(F)c3)nc21 (stereo not shown) [Compound 22]
2.43,> 100,6.1,7.94e-06,87.7,,,,,,,,Cn1ncc2c(N3CCC[C@H]3CO)nc(Nc3ccc(F)c(F)c3)nc21 [Compound 25]
3.78,39.8,29.8,1.26e-06,102,,,,,,,93.3,COC(=O)[C@@H](CO)Nc1nc(Nc2ccc(F)c(F)c2)nc2c1cnn2C [Compound 30]
2.45,> 100,0.59,7.94e-06,65.4,,,,,,,,Cn1ncc2c(NC3CCOCC3)nc(Nc3ccc(F)c(F)c3)nc21 [Compound 23]
